Results taken from ChEMBL document CHEMBL4813922, “Discovery of a novel small-molecule inhibitor of Fam20C that induces apoptosis and inhibits migration in triple negative breast cancer” (Eur J Med Chem, 2021).
pIC50: −log10 of the molar value. Blank lines part the entries; values can stand above or below the molecule they belong to. Calls of active or inactive are those of the source. The rule behind the calls is not given here.

How the values were obtained:
MDA-MB-231 [1] = test: Antiproliferative activity against human MDA-MB-231 cells measured by MTT assay; assay type: functional, cell-based
MDA-MB-468 = test: Antiproliferative activity against human MDA-MB-468 cells measured by MTT assay; assay type: functional, cell-based
MCF7 = test: Antiproliferative activity against human MCF7 cells measured by MTT assay; assay type: functional, cell-based
[2] = biological target: T1, Extracellular serine/threonine protein kinase FAM20C (Homo sapiens) (UniProt Q8IXL6); test: Inhibition of Fam20C (unknown origin) assessed as reduction in inorganic phosphate release in presence of ATP at 10 uM measured by Malachite green phosphate staining based micro plate reader assay relative to control
T1 sequence (whole entry): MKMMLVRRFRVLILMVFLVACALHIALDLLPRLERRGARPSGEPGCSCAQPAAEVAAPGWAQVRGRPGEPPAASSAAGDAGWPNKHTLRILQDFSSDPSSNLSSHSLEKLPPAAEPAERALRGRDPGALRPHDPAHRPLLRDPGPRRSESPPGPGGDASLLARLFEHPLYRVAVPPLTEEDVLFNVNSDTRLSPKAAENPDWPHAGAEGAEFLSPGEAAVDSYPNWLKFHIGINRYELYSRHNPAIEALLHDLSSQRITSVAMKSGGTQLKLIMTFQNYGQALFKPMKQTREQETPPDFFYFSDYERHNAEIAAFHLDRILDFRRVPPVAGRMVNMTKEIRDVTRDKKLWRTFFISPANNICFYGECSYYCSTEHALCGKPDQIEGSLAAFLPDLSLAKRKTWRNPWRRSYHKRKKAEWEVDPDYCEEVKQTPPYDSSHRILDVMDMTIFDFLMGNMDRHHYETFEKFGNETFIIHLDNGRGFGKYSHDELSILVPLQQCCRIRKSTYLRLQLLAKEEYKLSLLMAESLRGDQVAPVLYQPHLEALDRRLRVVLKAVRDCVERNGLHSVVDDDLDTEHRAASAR

[3] = biological target: T2, Extracellular serine/threonine protein kinase FAM20C (Homo sapiens, UniProt Q8IXL6); test: Inhibition of Fam20C (unknown origin) assessed as reduction in inorganic phosphate release in presence of ATP measured by Malachite green phosphate staining based micro plate reader assay
T2 sequence (Q8IXL6 whole entry): T1 sequence (whole entry)

MDA-MB-231 [4] = test: Inhibition of colony formation in human MDA-MB-231 cells at 5 uM measured after 2 weeks by crystal violet staining based analysis; assay type: functional, cell-based
MCF-10A = test: Cytotoxicity against human MCF-10A cells assessed as inhibition of cell proliferation at 0.625 to 40 uM measured by MTT assay; assay type: cell-based; conditions: dose 0.625-40 µM
MDA-MB-231 [5] = test: Induction of apoptosis in human MDA-MB-231 cells assessed as DNA condensation measured after 24 hrs by Hoechst 33258 staining based flourescence microscopic analysis; assay type: functional, cell-based
MDA-MB-231 [6] = test: Induction of apoptosis in human MDA-MB-231 cells assessed as viable cells at 2.5 uM measured after 24 hrs by Annexin V-FITC/PI staining based flow cytometry (reference value: 94.3%); assay type: functional; conditions: read-out: Activity
MDA-MB-231 [7] = test: Induction of apoptosis in human MDA-MB-231 cells assessed as early apoptotic cells at 2.5 uM measured after 24 hrs by Annexin V-FITC/PI staining based flow cytometry (reference value: 2%); assay type: functional
MDA-MB-231 [8] = test: Induction of apoptosis in human MDA-MB-231 cells assessed as late apoptotic cells at 2.5 uM measured after 24 hrs by Annexin V-FITC/PI staining based flow cytometry (reference value: 3.02%); assay type: functional
MDA-MB-231 [9] = test: Induction of apoptosis in human MDA-MB-231 cells assessed as necrotic cells at 2.5 uM measured after 24 hrs by Annexin V-FITC/PI staining based flow cytometrY (reference value: 0.64%); assay type: functional
MDA-MB-231 [10] = test: Induction of apoptosis in human MDA-MB-231 cells assessed as viable cells at 5 uM measured after 24 hrs by Annexin V-FITC/PI staining based flow cytometry (reference value: 94.3%); assay type: functional; conditions: read-out: Activity
MDA-MB-231 [11] = test: Induction of apoptosis in human MDA-MB-231 cells assessed as early apoptotic cells at 5 uM measured after 24 hrs by Annexin V-FITC/PI staining based flow cytometry (reference value: 2%); assay type: functional
MDA-MB-231 [12] = test: Induction of apoptosis in human MDA-MB-231 cells assessed as late apoptotic cells at 5 uM measured after 24 hrs by Annexin V-FITC/PI staining based flow cytometry (reference value: 3.02%); assay type: functional
MDA-MB-231 [13] = test: Induction of apoptosis in human MDA-MB-231 cells assessed as necrotic cells at 5 uM measured after 24 hrs by Annexin V-FITC/PI staining based flow cytometry (reference value: 0.64%); assay type: functional
MDA-MB-231 [14] = test: Induction of apoptosis in human MDA-MB-231 cells assessed as upregulation of Bax protein expression at 2.5 to 5 uM measured after 24 hrs by western blot assay; assay type: functional, cell-based; conditions: dose 2.5-5 µM
MDA-MB-231 [15] = test: Induction of apoptosis in human MDA-MB-231 cells assessed as upregulation of cleaved caspase 3 level at 2.5 to 5 uM measured after 24 hrs by western blot assay; assay type: functional, cell-based; conditions: dose 2.5-5 µM
MDA-MB-231 [16] = test: Induction of apoptosis in human MDA-MB-231 cells assessed as downregulation of Bcl-2 protein expression at 2.5 to 5 uM measured after 24 hrs by western blot assay; assay type: functional, cell-based; conditions: dose 2.5-5 µM
MDA-MB-231 [17] = test: Inhibition of cell migration in human MDA-MB-231 cells assessed as decrease in wound closure at 2.5 uM measured after 24 hrs by scratch assay; assay type: functional, cell-based
MDA-MB-231 [18] = test: Inhibition of cell migration in human MDA-MB-231 cells at 2.5 uM measured after 12 hrs by Transwell assay; assay type: functional, cell-based
MDA-MB-231 [19] = test: Inhibition of cell migration in human MDA-MB-231 cells assessed as upregulation of E-cadherin protein expression at 2.5 to 5 uM measured after 24 hrs by western blot assay; assay type: functional, cell-based; conditions: dose 2.5-5 µM
MDA-MB-231 [20] = test: Inhibition of cell migration in human MDA-MB-231 cells assessed as downregulation of MMP-2 protein expression at 2.5 to 5 uM measured after 24 hrs by western blot assay; assay type: functional, cell-based; conditions: dose 2.5-5 µM
MDA-MB-231 [21] = test: Inhibition of cell migration in human MDA-MB-231 cells assessed as upregulation of E-cadherin protein expression at 2.5 uM measured after 24 hrs by immunofluorescence assay; assay type: functional, cell-based
MDA-MB-231 [22] = test: Inhibition of cell migration in human MDA-MB-231 cells assessed as downregulation of MMP-2 protein expression at 2.5 uM measured after 24 hrs by immunofluorescence assay; assay type: functional, cell-based
MDA-MB-231 [23] = test: Antitumour activity against human MDA-MB-231 cells xenografted in Balb/c mouse assessed as reduction in tumor volume at 25 to 50 mg/kg, ig for 14 days; assay type: functional, organism-based; conditions: dose 25-50 mg/kg, time 14.0 day
MDA-MB-231 [24] = test: Antitumour activity against human MDA-MB-231 cells xenografted in Balb/c mouse assessed as reduction in tumor weight at 25 to 50 mg/kg, ig for 14 days; assay type: functional, organism-based; conditions: dose 25-50 mg/kg, time 14.0 day
[25] = Toxicity in Balb/c mouse xenografted with human MDA-MB-231 cells assessed as changes in body weight at 25 mg/kg, ig measured after 14 days; assay type: organism-based; conditions: in vivo, po, 336 h, time 14 day
[26] = Toxicity in Balb/c mouse xenografted with human MDA-MB-231 cells assessed as changes in body weight at 50 mg/kg, ig measured after 14 days; assay type: organism-based; conditions: in vivo, po, 336 h, time 14 day
MDA-MB-231 [27] = test: Antitumour activity against human MDA-MB-231 cells xenografted in Balb/c mouse assessed as decrease in Ki-67 expression in tumor at 50 mg/kg, ig measured after 14 days by immunohistochemistry method; assay type: functional, organism-based; conditions: time 14.0 day
MDA-MB-231 [28] = test: Antitumour activity against human MDA-MB-231 cells xenografted in Balb/c mouse assessed as upregulation of Bax protein expression in tumor at 25 to 50 mg/kg, ig measured after 14 days by western blot method; assay type: functional, organism-based; conditions: dose 25-50 mg/kg, time 14.0 day
MDA-MB-231 [29] = test: Antitumour activity against human MDA-MB-231 cells xenografted in Balb/c mouse assessed as downregulation of Bcl-2 protein expression in tumor at 25 to 50 mg/kg, ig measured after 14 days by western blot method; assay type: functional, organism-based; conditions: dose 25-50 mg/kg, time 14.0 day
MDA-MB-231 [30] = test: Antitumour activity against human MDA-MB-231 cells xenografted in Balb/c mouse assessed as increase in cleaved caspase 3 level in tumor at 25 to 50 mg/kg, ig measured after 14 days by western blot method; assay type: functional, organism-based; conditions: dose 25-50 mg/kg, time 14.0 day

Compound: COc1ccc(C(=O)Nc2ccc(Nc3nccc(Nc4ccc(OC)cc4C)n3)cc2)cc1
- pIC50 (MDA-MB-231 [1]): 4.63
- pIC50 (MDA-MB-468): < 4.30
- pIC50 (MCF7): < 4.30
- inhibition [2]: 23%

Compound: Cc1ccc(S(=O)(=O)Nc2ccc(Nc3nc(Nc4ccc(F)cc4)cc(C(F)(F)F)n3)cc2)c(Cl)c1
- pIC50 (MDA-MB-231 [1]): 4.56
- pIC50 (MDA-MB-468): < 4.30
- pIC50 (MCF7): < 4.30
- inhibition [2]: 18%

Compound: Cc1cc(Nc2ccc(F)cc2)nc(Nc2ccc(NS(=O)(=O)c3ccccc3OC(F)(F)F)cc2)n1
- pIC50 (MDA-MB-231 [1]): 4.62
- pIC50 (MDA-MB-468): 4.37
- pIC50 (MCF7): < 4.30
- inhibition [2]: 23%

Compound: COc1cc(C)cc(Cl)c1S(=O)(=O)Nc1ccc(Nc2nc(C)cc(Nc3ccc(F)cc3)n2)cc1
- pIC50 (MDA-MB-231 [1]): < 4.30
- pIC50 (MDA-MB-468): < 4.30
- pIC50 (MCF7): < 4.30
- inhibition [2]: 12%

Compound: COc1ccc(Nc2cc(C)nc(Nc3ccc(NS(=O)(=O)c4c(Cl)cc(C)cc4OC)cc3)n2)cc1
- pIC50 (MDA-MB-231 [1]): < 4.30
- pIC50 (MDA-MB-468): < 4.30
- pIC50 (MCF7): < 4.30
- inhibition [2]: 12%

Now from value to molecule, other results behind:

- pIC50 (MDA-MB-231 [1]): < 4.30
- pIC50 (MDA-MB-468): < 4.30
- pIC50 (MCF7): < 4.30
- inhibition [2]: 10%
Compound: COc1ccc(S(=O)(=O)Nc2ccc(Nc3nccc(-c4ccccc4)n3)cc2)cc1

- pIC50 (MDA-MB-231 [1]): < 4.30
- pIC50 (MDA-MB-468): < 4.30
- pIC50 (MCF7): < 4.30
- inhibition [2]: 11%
Compound: COc1ccc(S(=O)(=O)Nc2ccc(Nc3nc(C)cc(Nc4ccc(OC)c(O)c4)n3)cc2)cc1

- pIC50 (MDA-MB-231 [1]): < 4.30
- pIC50 (MDA-MB-468): < 4.30
- pIC50 (MCF7): < 4.30
- inhibition [2]: 14%
Compound: COc1ccc(Nc2ccc(Nc3nc(C)cc(Nc4ccc(OC)cc4)n3)cc2)cc1

- pIC50 (MDA-MB-231 [1]): 4.67
- pIC50 (MDA-MB-468): < 4.30
- pIC50 (MCF7): < 4.30
- inhibition [2]: 28%
Compound: COc1ccc(Nc2ccnc(Nc3ccc(NS(=O)(=O)c4ccc(C)cc4)cc3)n2)cc1

- pIC50 (MDA-MB-231 [1]): 5.22
- pIC50 (MDA-MB-468): 4.99
- pIC50 (MCF7): 5.01
- inhibition [2]: 68%
- pIC50 [3]: 5.20
Compound: COc1ccc(S(=O)(=O)Nc2ccc(Nc3nccc(Nc4cc(OC)c(OC)c(OC)c4)n3)cc2)cc1
- inhibition (MDA-MB-231 [4]): Active
- Activity (MCF-10A): Non-Toxic
- Activity (MDA-MB-231 [5]): Active
- viability at 2.5 µM (MDA-MB-231 [6]): 70.8%
- Activity (MDA-MB-231 [7]): 10.7%
- Activity (MDA-MB-231 [8]): 15.3%
- Activity (MDA-MB-231 [9]): 3.23%
- viability at 5 µM (MDA-MB-231 [10]): 42%
- Activity (MDA-MB-231 [11]): 15.9%
- Activity (MDA-MB-231 [12]): 33.2%
- Activity (MDA-MB-231 [13]): 8.89%
- Activity (MDA-MB-231 [14]): Active
- Activity (MDA-MB-231 [15]): Active
- Activity (MDA-MB-231 [16]): Active
- inhibition (MDA-MB-231 [17]): Active
- inhibition (MDA-MB-231 [18]): Active
- inhibition (MDA-MB-231 [19]): Active
- inhibition (MDA-MB-231 [20]): Active
- inhibition (MDA-MB-231 [21]): Active
- inhibition (MDA-MB-231 [22]): Active
- Activity (MDA-MB-231 [23]): Active
- Activity (MDA-MB-231 [24]): Active
- Activity [25]: Non-Toxic
- Activity [26]: Non-Toxic
- Activity (MDA-MB-231 [27]): Active
- Activity (MDA-MB-231 [28]): Active
- Activity (MDA-MB-231 [29]): Active
- Activity (MDA-MB-231 [30]): Active

- pIC50 (MDA-MB-231 [1]): 5.16
- pIC50 (MDA-MB-468): 4.83
- pIC50 (MCF7): 4.54
- inhibition [2]: 25%
Compound: COc1ccc(Nc2ccnc(Nc3ccc(NS(=O)(=O)c4ccc(OC)cc4)cc3)n2)cc1

- pIC50 (MDA-MB-231 [1]): 4.76
- pIC50 (MDA-MB-468): 4.33
- pIC50 (MCF7): < 4.30
- inhibition [2]: 28%
Compound: COc1cc(Nc2ccnc(Nc3ccc(NS(=O)(=O)c4ccc(C)cc4)cc3)n2)cc(OC)c1OC
